The structures appear in SMILES notation.

The target of assay [1] is T1, TLR7 (Homo sapiens, UniProt Q9NYK1).
T1 construct: expressed in transfected cells; host or cells: HEK/293 cells carrying TLR7 and an NF-kB luciferase reporter
T1 sequence (Q9NYK1 27-1049): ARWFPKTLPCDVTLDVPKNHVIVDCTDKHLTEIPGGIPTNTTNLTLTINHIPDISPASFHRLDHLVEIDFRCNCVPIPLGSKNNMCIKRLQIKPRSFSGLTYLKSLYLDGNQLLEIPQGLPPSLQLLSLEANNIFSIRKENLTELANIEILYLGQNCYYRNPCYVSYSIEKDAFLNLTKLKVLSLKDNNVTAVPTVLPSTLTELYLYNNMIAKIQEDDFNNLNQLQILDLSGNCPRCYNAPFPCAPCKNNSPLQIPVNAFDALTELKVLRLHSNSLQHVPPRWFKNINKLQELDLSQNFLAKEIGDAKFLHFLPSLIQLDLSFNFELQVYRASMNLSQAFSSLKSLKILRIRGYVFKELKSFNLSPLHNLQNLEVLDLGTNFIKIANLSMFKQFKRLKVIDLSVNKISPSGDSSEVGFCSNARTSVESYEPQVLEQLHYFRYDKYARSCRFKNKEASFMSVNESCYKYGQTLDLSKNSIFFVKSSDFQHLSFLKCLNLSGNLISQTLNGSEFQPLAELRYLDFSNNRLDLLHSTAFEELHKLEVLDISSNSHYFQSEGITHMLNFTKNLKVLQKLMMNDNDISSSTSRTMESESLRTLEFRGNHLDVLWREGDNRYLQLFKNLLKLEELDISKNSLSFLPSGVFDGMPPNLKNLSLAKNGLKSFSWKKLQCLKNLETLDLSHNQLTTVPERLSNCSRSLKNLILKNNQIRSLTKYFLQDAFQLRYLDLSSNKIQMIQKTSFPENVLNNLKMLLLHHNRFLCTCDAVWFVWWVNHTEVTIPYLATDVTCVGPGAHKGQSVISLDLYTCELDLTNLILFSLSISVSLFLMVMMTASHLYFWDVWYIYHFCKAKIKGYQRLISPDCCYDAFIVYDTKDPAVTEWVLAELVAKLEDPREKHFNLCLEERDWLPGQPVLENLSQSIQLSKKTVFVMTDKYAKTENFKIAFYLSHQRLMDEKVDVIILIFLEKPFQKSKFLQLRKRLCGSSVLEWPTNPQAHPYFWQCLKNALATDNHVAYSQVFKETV
The assay can be described thus: HEK/293 TLR7 Cell Assay. The assay is classed as cell-based. Conditions: TLR7/NFKb HEK cells, R848 agonist 10 uM final concentration, Steady-Glo readout; read-out: TLR7 potency. In a few lines:
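Compounds added to HEK cells expressing TLR7 with an NFκB reporter 30 min ahead of 10 uM R848 challenge; luciferase signal (Steady-Glo) measured after 5 h, cells having been seeded 24 h earlier at 5000 per well.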

The target in assay [2] is T2, TLR8 (Homo sapiens, UniProt Q9NR97).
T2 construct: expressed in transfected cells; host or cells: HEK/293 reporter cells (NF-kB luciferase)
T2 sequence (Q9NR97 27-1041): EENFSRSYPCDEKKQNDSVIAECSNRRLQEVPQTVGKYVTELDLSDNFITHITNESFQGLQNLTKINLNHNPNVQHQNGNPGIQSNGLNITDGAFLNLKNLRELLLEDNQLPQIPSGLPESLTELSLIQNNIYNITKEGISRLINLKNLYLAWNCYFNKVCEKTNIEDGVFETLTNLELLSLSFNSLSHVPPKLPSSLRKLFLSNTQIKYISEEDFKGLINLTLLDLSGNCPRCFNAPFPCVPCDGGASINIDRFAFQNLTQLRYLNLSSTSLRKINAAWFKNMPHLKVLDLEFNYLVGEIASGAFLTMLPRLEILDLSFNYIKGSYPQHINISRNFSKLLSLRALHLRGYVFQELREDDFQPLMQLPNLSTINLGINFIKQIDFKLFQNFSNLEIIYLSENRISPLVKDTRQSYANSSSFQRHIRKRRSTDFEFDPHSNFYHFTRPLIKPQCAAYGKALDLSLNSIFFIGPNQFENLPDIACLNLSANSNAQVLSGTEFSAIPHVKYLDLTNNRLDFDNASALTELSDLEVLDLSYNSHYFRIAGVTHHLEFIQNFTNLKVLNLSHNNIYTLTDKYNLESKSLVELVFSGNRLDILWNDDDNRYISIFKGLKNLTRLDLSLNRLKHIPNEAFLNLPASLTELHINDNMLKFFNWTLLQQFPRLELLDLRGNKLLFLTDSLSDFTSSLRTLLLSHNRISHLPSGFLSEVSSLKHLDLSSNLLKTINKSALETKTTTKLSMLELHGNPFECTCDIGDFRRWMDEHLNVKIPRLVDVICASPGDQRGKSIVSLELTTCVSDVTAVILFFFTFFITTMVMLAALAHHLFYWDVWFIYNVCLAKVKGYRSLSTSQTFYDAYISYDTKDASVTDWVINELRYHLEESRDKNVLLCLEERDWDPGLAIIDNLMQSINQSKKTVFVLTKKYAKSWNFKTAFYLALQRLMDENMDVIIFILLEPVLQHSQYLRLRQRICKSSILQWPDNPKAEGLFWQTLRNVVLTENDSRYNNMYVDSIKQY
Briefly: HEK/293 TLR8 Cell Assay. The assay is classed as cell-based. The following applies: HEK cells, R848 agonist 30 uM final concentration, Steady-Glo readout; read-out: TLR8 potency.

As for `C[C@H]1C[C@@H](NCCCS(C)(=O)=O)CN(c2ccc(C#N)c3nccnc23)C1` [Example 21, 8-[(3R,5S)-3-[(3-methanesulfonylpropyl)amino]-5-methylpiperidin-1-yl]quinoxaline-5-carbonitrile methanesulfonamide], the IC50 in assay [1] and in assay [2] was less than 75 nM in each case.
As for `COCC(O)CNC(=O)[C@H]1CN(c2ccc(C#N)c3nccnc23)C[C@@H](C)O1` (stereo partly drawn) [Example 252, (2R,6R)-4-(8-Cyano-quinoxalin-5-yl)-6-methyl-morpholine-2-carboxylic acid (2-hydroxy-3-methoxy-propyl)-amide], the IC50 in assay [1] is 75 to 150 nM; in assay [2] it was less than 75 nM.
In the case of `C[C@H]1C[C@@H](NC(=O)[C@H]2COCCN2)CN(c2ccc(C#N)c3nccnc23)C1` [Example 209, (3R)—N-[(3R,5S)-1-(8-cyanoquinoxalin-5-yl)-5-methylpiperidin-3-yl]morpholine-3-carboxamide], the IC50 in assay [1] is 75 to 150 nM; in assay [2] it was less than 75 nM.
Consider `C[C@@H]1CN(c2ccc(C#N)c3nccnc23)C[C@H](CN2CCC(C(C)(C)O)C2)O1` (stereo partly drawn) [Example 222, 8-{(2S,6R)-2-[3-(1-Hydroxy-1-methyl-ethyl)-pyrrolidin-1-ylmethyl]-6-methyl-morpholin-4-yl}-quinoxaline-5-carbonitrile], for which the IC50 in assay [1] is less than 75 nM; in assay [2] it was 75 to 150 nM.
For `COc1ncc(N2C[C@@H](C)C[C@@H](N)C2)c2cccnc12` [Example 151, (3R,5S)-1-(8-Methoxy-[1,7]naphthyridin-5-yl)-5-methyl-piperidin-3-ylamine], the IC50 in assay [1] and in assay [2] was less than 75 nM in each case.
`N#Cc1ccc(N2C[C@H](NCC3CCCNC3)C[C@H](C(F)(F)F)C2)c2cccnc12` (stereo partly drawn) [Example 152, 5-{(3R,5S)-3-[(Piperidin-3-ylmethyl)-amino]-5-trifluoromethyl-piperidin-1-yl}-quinoline-8-carbonitrile]: the IC50 in assay [1] and in assay [2] was 75 to 150 nM throughout.
Consider `C[C@H]1C[C@@H](NCCC2CCNC2=O)CN(c2ccc(C(F)(F)F)c3ncccc23)C1` (stereo partly drawn) [Example 30, 3-{2-[(3R,5S)-5-Methyl-1-(8-trifluoromethyl-quinolin-5-yl)-piperidin-3-ylamino]-ethyl}-pyrrolidin-2-one], for which the IC50 in assay [1] and in assay [2] was less than 75 nM throughout.
In the case of `N#Cc1ccc(N2C[C@H](NC(=O)[C@H]3CCCN3)C[C@H](C(F)(F)F)C2)c2cccnc12` [Example 126, (2R)—N-[(3R,5S)-1-(8-cyanoquinolin-5-yl)-5-(trifluoromethyl)piperidin-3-yl]pyrrolidine-2-carboxamide], the values for the IC50 in assay [1] and in assay [2] were 75 to 150 nM and greater than 150 nM, respectively.
In the case of `CN1CCC(F)(CNC(=O)[C@H]2CN(c3ccc(C#N)c4nccnc34)C[C@@H](C(F)(F)F)O2)CC1` (single isomer, unassigned) [Example 359], the IC50 in assay [1] and in assay [2] was less than 75 nM in each case.
`C[C@H]1C[C@@H](NC(=O)[C@H](O)C(C)(C)O)CN(c2ccc(C#N)c3nccnc23)C1` [Example 162, (R)—N-[(3R,5S)-1-(8-Cyano-quinoxalin-5-yl)-5-methyl-piperidin-3-yl]-2,3-dihydroxy-3-methyl-butyramide]: the IC50 in assay [1] was 75 to 150 nM; in assay [2], greater than 150 nM.
Taken in the same sequence, the figures for `C[C@H]1C[C@@H](NC(=O)C2CCNCC2)CN(c2ccc(C(F)(F)F)c3ncccc23)C1` [Example 179, Piperidine-4-carboxylic acid [(3R,5S)-5-methyl-1-(8-trifluoromethyl-quinolin-5-yl)-piperidin-3-yl]-amide] were less than 75 nM and less than 75 nM.
For the compound `C[C@H]1C[C@@H](NC(=O)CCN(C)C)CN(c2ccc(C(F)(F)F)c3nccnc23)C1` [Example 78], the IC50 in assay [1] and in assay [2] was less than 75 nM each time.
`N#Cc1ccc(N2C[C@@H](C(=O)NC[C@]3(F)CCNC3)O[C@@H](C(F)(F)F)C2)c2nccnc12` (single isomer, unassigned) [Example 310]: the IC50 in assay [1] and in assay [2] was less than 75 nM each time.
In the case of `C[C@H]1C[C@@H](NC(=O)[C@@H](C)N2CCC(O)CC2)CN(c2ccc(C(F)(F)F)c3ncccc23)C1` (single isomer, unassigned) [Example 105], the values for the IC50 in assay [1] and in assay [2] were greater than 150 nM and less than 75 nM, respectively.
Taken in the same sequence, the figures for `C[C@H]1C[C@@H](NCCNS(C)(=O)=O)CN(c2ccc(C(F)(F)F)c3ncccc23)C1` [Example 20, N-(2-{[(3R,5S)-5-methyl-1-[8-(trifluoromethyl)quinolin-5-yl]piperidin-3-yl]amino}ethyl)methanesulfonamide] were less than 75 nM and less than 75 nM.
For `CC(C)(O)CNC(=O)[C@@H]1CN(c2ccc(C#N)c3nccnc23)C[C@H](C(F)(F)F)O1` (single isomer, unassigned) [Example 285], the IC50 in assay [1] and in assay [2] was greater than 150 nM in each case.
As to `C[C@H]1C[C@@H](NC(=O)[C@@H]2CCNC2)CN(c2ccc(C(F)(F)F)c3ncccc23)C1` [Example 204, (3R)—N-[(3R,5S)-5-methyl-1-[8-(trifluoromethyl)quinolin-5-yl]piperidin-3-yl]pyrrolidine-3-carboxamide], the IC50 in assay [1] and in assay [2] was less than 75 nM throughout.
For `CC(=O)NCCN[C@@H]1C[C@H](C(F)(F)F)CN(c2ccc(C#N)c3ncccc23)C1` [Example 44, N-{2-[(3R,5S)-1-(8-Cyano-quinolin-5-yl)-5-trifluoromethyl-piperidin-3-ylamino]-ethyl}-acetamide], the IC50 in assay [1] was less than 75 nM; in assay [2] it was 75 to 150 nM.
On the same counts, the results for `C[C@H]1C[C@@H](NCC2CCC(=O)N2)CN(c2ccc(C(F)(F)F)c3nccnc23)C1` (stereo partly drawn) [Example 28, 5-{[(3R,5S)-5-Methyl-1-(8-trifluoromethyl-quinoxalin-5-yl)-piperidin-3-ylamino]-methyl}-pyrrolidin-2-one] are less than 75 nM and less than 75 nM.
For the compound `C[C@H]1C[C@@H](NC(=O)CCn2ccnc2)CN(c2ccc(C#N)c3nccnc23)C1` [Example 193, N-[(3R,5S)-1-(8-Cyano-quinoxalin-5-yl)-5-methyl-piperidin-3-yl]-3-imidazol-1-yl-propionamide], the IC50 in assay [1] and in assay [2] was less than 75 nM in each case.
Consider `CCN(CC)CCO[C@@H]1C[C@H](C)CN(c2ccc(C(F)(F)F)c3ncccc23)C1` (relative stereo) [Example 4, diethyl(2-[[cis-5-methyl-1-[8-(trifluoromethyl)quinolin-5-yl]piperidin-3-yl]oxy]ethyl)amine], for which the IC50 is greater than 150 nM in assay [1] and less than 75 nM in assay [2].

Source of the values: US20210300940A1 (Merck Patent GmbH, priority 2018, published 2021).
